One data set has as its system hepatic gluconeogenesis. Nature of the data set: Suppression of hepatic gluconeogenesis in STZ diabetic rats (RT-PCR, Western blot, cAMP kit). It counts as in vivo, rat. The method, then: Administering a combination of Medica16αα and insulin was performed by treating STZ diabetic rats (FBG >300 mg/dl) with oral MEDICA16αα(15 mg/kg b.i.d) for five consecutive days, then MEDICA16αα-responsive rats were further treated with MEDICA16αα(15 mg/kg b.i.d) for 10 additional consecutive days (“STZ/MEDICA Res”), and MEDICA16αα non-responsive rats (FBG >250 mg/dl) were further treated for 10 additional consecutive days with either insulin Neutral Protamine Hagedorn (NPH) (3 u/kg b.i.d subcutaneously) (“STZ/NPH”), or with insulin NPH (3 u/kg b.i.d subcutaneously in combination with oral MEDICA16αα(15 mg/kg b.i.d) (“STZ/MEDICA NPH”).
Sampled frozen tissue was homogenized (Polytron) in lysis buffer (50 mM Tris HCl, pH 8.0, 1% Triton X-100, 1 mM EGTA, 1 mM EDTA, 150 mM NaCl, 5 mM NaPPi, 50 mM NaF, 1 mM PMSF, 1 mM Na Vanadate, 40 nM bpVfan and protease inhibitor cocktail (Sigma)), and centrifuged for 15 min at 12,500 rpm.
Protein lysates were prepared in sodium dodecyl sulfate (SDS) sample buffer (62 mM Tris (pH 6.8), 2.3% SDS, […] mercaptoethanol, 10% glycerol), and were subjected to SDS-PAGE, electro-transferred onto cellulose nitrate membranes (Schleicher & Schuell) and probed with the indicated first antibody, followed by HRP-labeled second antibody. Protein concentration was determined by BCA (Thermo Scientific). Bands were detected by ECL, and the intensity of individual bands was determined by densitometry using ImageJ 1.48 v software.
Sampled frozen tissue was homogenized (Polytron) in lysis buffer (50 mM Hepes (pH 7.4), 150 mM NaCl, 10% Glycerol, 1.5 mM MgCl2, 1 mM EGTA, 1% Triton, 50 mM β-glycerolphosphate, 25 mM NaF, 1 mM Na-vanadate, 40 nM bpVphen, protease inhibitor mix (Sigma) and 17.5 mg/ml octyl beta-D-glucopyranoside (Sigma)). Lysates were kept on ice for 30 min and centrifuged at 12000 rpm for 15 min. Lysates ([…]) were incubated for 4 h with protein A/G beads (Santa Cruz Biotechnology) pre-loaded with the indicated antibody. The immune-precipitate was rinsed 3 times with washing buffer (20 mM Hepes (pH 7.4), 150 mM NaCl, 0.1% Tx-100, 10% glycerol), re-suspended in SDS sample buffer, boiled for 8 min, and analyzed by SDS-PAGE.
Total RNA was prepared using the TRI reagent (Sigma Aldrich). First-strand cDNA used as template was synthesized by reverse transcription using oligo(dT) as primer and the Reverse-iTMAX First Strand Kit (ABgene, Epson). Glucose-6-phosphatase (G6Pase) and phosphoenolpyruvate carboxykinase (PEPCK) transcripts normalized by tubulin were quantified by real-time PCR (Rotor Gene RG-3000A) using SYBER green MasterMix (Absolute Syber Green ROX Mix, ABgene) and the following primers: […]
Pancreas and plasma insulin and glucagon content were determined by insulin (Millipore, Cat #RI-13K) and glucagon (Millipore, Cat # GL-32K) radioimmunoassay (RIA) kits. cAMP levels were measured by cAMP kit (Arbor Assays, DetectX Cat # K019-H1).

Data set [1] can be described thus: Plasma MEDICA16αα exposure in STZ diabetic rats (LC/MS). It counts as in vivo. The conditions noted are these: Sprague-Dawley, rat, po, 15 mg/kg, oral 15 mg/kg b.i.d, data not shown. The method, then:
Plasma aliquots of 100 μl were vortex-mixed with 50 μl of formic acid:methanol (1:1 v/v) solution containing an internal standard, extracted into n-hexane, centrifuged, and the hexane layer was evaporated to dryness. The residue was reconstituted in the mobile phase and injected into the LC/MS system [Waters Micromass ZQ mass spectrometer (Waters Co.)]. LC/MS conditions were as follows:)(Bridge MS; RP8 column, 3.5 μm, 2.1×100 mm column (Waters Co.); column temperature was 35° C.; isocratic mobile phase, methanol:water (82:18 v/v) containing 0.1% formic acid, at a flow rate of 0.2 ml/min; detector tuned to 500 L/hr nitrogen flow; source temperature; 400° C.; cone voltage 30V; ionization mode ESI+; 365 and 393 m/z for MEDICA16αα and the internal standard, respectively. Calibration curves were linear and validated in the 100 ng/ml to 5000 ng/ml range, with accuracy of 7-9% relative error and precision of 8-10% relative standard deviation.

Data set [2] concerns NOD mice. Nature of the data set: Hyperinsulinemic-euglycemic clamp in pre-diabetic NOD mice. It counts as in vivo, mouse. The method, then:
Clamps were carried out according to Vanderbilt Mouse Metabolic Phenotyping Center, Vanderbilt University School of Medicine protocol (28), with minor modifications, using HPLC-purified ^3H-glucose (specific activity 13.5 Ci/mmol, MT-914 Moravek Biochemicals, priming dose of 1 μC followed by continuous infusion of 0.05 μCi·min-1 for a 90 min equilibration period), HumulinR insulin (Eli Lilly, 4 mU·kg-1. min-1), and 10% glucose solution.
Clamps were carried out in conscious 12-14-week old NOD female mice fasted for 3 hours, 3 days following catheters' insertion. […] Plasma glucose specific activity was verified on 80, 90, 100, and 120 min following insulin infusion. On 120 min, 12-μCi bolus of ^14C-2-deoxyglucose (DG) (specific activity 274.6 mCi/mmol, MC-392 Moravek Biochemicals) was injected, followed by blood sampling on 122, 125, 130, 135, and 145 min, to determine blood glucose and 2-deoxyglucose activity.
Upon sacrifice, gastrocnemius, superficial vastus lateralis, and soleus muscles were removed, immediately frozen in liquid nitrogen, and stored at −70° C. until further analysis. Glucose appearance (Ra) and disappearance (Rd) were determined using Steele non-steady-state equations. Endogenous glucose production (EndoRt) was determined by subtracting the glucose infusion rate (GIR) from total glucose turnover (Rt). Glucose metabolic index in muscle (Rg) was calculated by the equation:
[formula] where 2[^14C]DGPtissue is the 2[^14C]DG radioactivity in muscle normalized to tissue weight (dpm/g tissue), AUC 2[^14C]DGplasma is the area under the plasma 2[^14C]DG disappearance curve (dpm·min·m1-1), and [arterial glucose] is the average blood glucose (mmol/1) during the 80-120 min clamp period. Immuno-Histochemistry

For data set [3], the system named is NOD mice. The data set can be described thus: Islet insulitis scoring in NOD mice. The conditions noted are these: 14-week old pre-diabetic NOD mice. Type of data set: in vivo, mouse. The text has this: Head of pancreas of NOD mice was sampled, fixed in 4% buffered formalin, embedded in paraffin, and […] sections were stained with hematoxylin/eosin. Insulitis scores 0 to 4 were verified by the percentage of intra-islet mononuclear granulation (“0”, no intra-islet mononuclear cell infiltration; “1”, <25% of islet being infiltrated with mononuclear cell granulation; “2”, 25%-50%; “3”, 50-75%; “4”, >75%), in 30 to 40 islets per pancreas.

Molecules are shown by their SMILES. Like-named read-outs stand apart in the source and are kept apart here.

`CC(C)(CCCCCCCCCCCCC(C)(C)C(=O)O)C(=O)O` [MEDICA16αα, 2,2,15,15-tetramethylhexadecane-1,16-dioic acid]: in the data set with hepatic gluconeogenesis, the “hepatic cAMP levels” value is given as “suppressing hepatic cAMP levels” and the “hepatic phospho-ACC(Ser79) (AMPK activation)” value is listed as “phosphorylation of its downstream ACC(Ser79) substrate”. In data set [1] (read-out: plasma MEDICA16αα exposure, non-responsive rats), the concentration at 10 days worked out at 26 ± 8.7 ng/mL. In data set [1] (read-out: plasma MEDICA16αα exposure, responsive rats), the concentration at 10 days was found to be 22.5 ± 4.4 ng/mL. In the data set on NOD mice [2], the clamped plasma insulin entry is listed as “decrease”; the “deoxyglucose uptake into soleus and gastrocnemius muscles” value is given as “insulin-induced deoxyglucose uptake”; the endogenous glucose production entry is “insulin-induced decrease”; the “increase in glucose infusion rate (GIR)” value stood at 37%. The “total body glucose turnover” value with NOD mice [2] is reported as “increase”. Further, in the data set on NOD mice [3], the “islet insulitis rankings versus non-treated” value is listed as “essentially similar”.
